The numbers were not newly measured in patent publication US8637665B2, “Pyrrolo[2,L-C][L,4]benzodiazepine-benzothiazole or benzoxazole conjugates linked through piperazine moiety and process for the preparation thereof” (priority 2010, dated 2014), which cites them from elsewhere.

For data set [1], the system named is duplex-form calf thymus DNA (CT-DNA). Conditions: comparative data, hybrids without piperazine, cited from earlier work.
Data set [2] has as its system MCF 7 (breast cancer) cell line. As to conditions: comparative data, hybrids without piperazine; read-out: GI50 MCF 7 (hybrides with out piperazine); cited from earlier work.
Data set [3] has as its system Colo 205 (colon cancer) cell line. Conditions: comparative data, hybrids without piperazine; read-out: GI50 Colo 205 (hybrides with out piperazine); cited from earlier work.
The test system of data set [4] is PC 3 (prostate cancer) cell line. Conditions: comparative data, hybrids without piperazine; read-out: GI50 PC 3 (hybrides with out piperazine); cited from earlier work.
Data set [5] relates to A 549 (lung cancer) cell line. Conditions: comparative data, hybrids without piperazine; read-out: GI50 A 549 (hybrides with out piperazine); cited from earlier work.
The subject of data set [6] is HOP 62 (lung cancer) cell line. Conditions: comparative data, hybrids without piperazine; read-out: GI50 HOP 62 (hybrides with out piperazine); cited from earlier work.
Data set [7] concerns IGROV1 (ovary cancer) cell line. Conditions: comparative data, hybrids without piperazine; read-out: GI50 IGROV1 (hybrides with out piperazine); cited from earlier work.
The next data set has as its system SNB-19 cell line. As to conditions: comparative data, hybrids without piperazine; read-out: GI50 SNB-19 (hybrides with out piperazine); cited from earlier work.
The next data set has as its system A498 cell line. As to conditions: comparative data, hybrids without piperazine; read-out: GI50 A498 (hybrides with out piperazine); cited from earlier work.

As for `COc1cc2c(cc1OCCCCOc1ccc(-c3nc4ccccc4s3)cc1)N=C[C@@H]1CCCN1C2=O` [Compound 20a], the “ΔTm after incubation at 37° C. for 0 h (PBD hybrids with out piperizine)” value (“ΔTm after incubation at 37° C. for 0 h” below) in data set [1] is 0.5 °C. For the same compound, the “ΔTm after incubation at 37° C. for 18 h (PBD hybrids with out piperizine)” value (shortened to “ΔTm after incubation at 37° C. for 18 h”) in [1] is 0.5 °C. Further, the GI50 in [2] is 320 nM; in [3] it was 340 nM; in [4], 290 nM; in data set [5] it was 2630 nM; in data set [6] it was 406 nM; in [7], 2420 nM. Moreover, the GI50 is 1520 nM in the data set on SNB-19 cell line and 2020 nM in the data set with A498 cell line.
In the case of `COc1cc(-c2nc3ccccc3s2)ccc1OCCCCOc1cc2c(cc1OC)C(=O)N1CCC[C@H]1C=N2` [Compound 20b], in data set [1], the “ΔTm after incubation at 37° C. for 0 h” value is 0.5 °C. The “ΔTm after incubation at 37° C. for 18 h” value in [1] is 0.5 °C. The GI50 is 400 nM in data set [2]; 690 nM in data set [3]; 410 nM in data set [4]; 2660 nM in data set [5]; 1410 nM in [6]; 3060 nM in [7]. Further, the GI50 with SNB-19 cell line was 1610 nM; with A498 cell line, 1600 nM.
For the compound `COc1cc2c(cc1OCCCCCOc1ccc(-c3nc4ccccc4s3)cc1)N=C[C@@H]1CCCN1C2=O` [Compound 20c], the “ΔTm after incubation at 37° C. for 0 h” value in [1] is 4.1 °C. For the same compound, the “ΔTm after incubation at 37° C. for 18 h” value in data set [1] was 4.3 °C. The GI50 is 330 nM in data set [2]; 380 nM in data set [3]; 230 nM in data set [4]; 2590 nM in [5]; 412 nM in data set [6]; 2690 nM in data set [7]. Further, the GI50 in the data set on SNB-19 cell line is 2940 nM; with A498 cell line, 2260 nM.
As for `COc1cc(-c2nc3ccccc3s2)ccc1OCCCCCOc1cc2c(cc1OC)C(=O)N1CCC[C@H]1C=N2` [Compound 20d], in data set [1], the “ΔTm after incubation at 37° C. for 0 h” value is 6.2 °C. Besides, the “ΔTm after incubation at 37° C. for 18 h” value in data set [1] is 6.3 °C. Also, the GI50 in data set [2] was 10 nM; in data set [3], 60 nM; in data set [4], 40 nM; in data set [5], 240 nM; in [6] it was 40 nM; in data set [7] it was 344 nM. Also, the results for the GI50 with SNB-19 cell line and in the data set with A498 cell line were 210 nM and 170 nM, respectively.
